Source: ChEMBL document CHEMBL1122283, “Angiotensin converting enzyme inhibitors: 1-glutarylindoline-2-carboxylic acids derivatives” (J Med Chem, 1983)
Blank lines part the entries; values can stand above or below the compound they belong to.

What was measured:
[1] = molecular target: T1, Angiotensin-converting enzyme (Oryctolagus cuniculus, UniProt P12822); experiment: In vitro inhibition of angiotensin I converting enzyme (ACE)
T1 sequence (P12822 whole entry): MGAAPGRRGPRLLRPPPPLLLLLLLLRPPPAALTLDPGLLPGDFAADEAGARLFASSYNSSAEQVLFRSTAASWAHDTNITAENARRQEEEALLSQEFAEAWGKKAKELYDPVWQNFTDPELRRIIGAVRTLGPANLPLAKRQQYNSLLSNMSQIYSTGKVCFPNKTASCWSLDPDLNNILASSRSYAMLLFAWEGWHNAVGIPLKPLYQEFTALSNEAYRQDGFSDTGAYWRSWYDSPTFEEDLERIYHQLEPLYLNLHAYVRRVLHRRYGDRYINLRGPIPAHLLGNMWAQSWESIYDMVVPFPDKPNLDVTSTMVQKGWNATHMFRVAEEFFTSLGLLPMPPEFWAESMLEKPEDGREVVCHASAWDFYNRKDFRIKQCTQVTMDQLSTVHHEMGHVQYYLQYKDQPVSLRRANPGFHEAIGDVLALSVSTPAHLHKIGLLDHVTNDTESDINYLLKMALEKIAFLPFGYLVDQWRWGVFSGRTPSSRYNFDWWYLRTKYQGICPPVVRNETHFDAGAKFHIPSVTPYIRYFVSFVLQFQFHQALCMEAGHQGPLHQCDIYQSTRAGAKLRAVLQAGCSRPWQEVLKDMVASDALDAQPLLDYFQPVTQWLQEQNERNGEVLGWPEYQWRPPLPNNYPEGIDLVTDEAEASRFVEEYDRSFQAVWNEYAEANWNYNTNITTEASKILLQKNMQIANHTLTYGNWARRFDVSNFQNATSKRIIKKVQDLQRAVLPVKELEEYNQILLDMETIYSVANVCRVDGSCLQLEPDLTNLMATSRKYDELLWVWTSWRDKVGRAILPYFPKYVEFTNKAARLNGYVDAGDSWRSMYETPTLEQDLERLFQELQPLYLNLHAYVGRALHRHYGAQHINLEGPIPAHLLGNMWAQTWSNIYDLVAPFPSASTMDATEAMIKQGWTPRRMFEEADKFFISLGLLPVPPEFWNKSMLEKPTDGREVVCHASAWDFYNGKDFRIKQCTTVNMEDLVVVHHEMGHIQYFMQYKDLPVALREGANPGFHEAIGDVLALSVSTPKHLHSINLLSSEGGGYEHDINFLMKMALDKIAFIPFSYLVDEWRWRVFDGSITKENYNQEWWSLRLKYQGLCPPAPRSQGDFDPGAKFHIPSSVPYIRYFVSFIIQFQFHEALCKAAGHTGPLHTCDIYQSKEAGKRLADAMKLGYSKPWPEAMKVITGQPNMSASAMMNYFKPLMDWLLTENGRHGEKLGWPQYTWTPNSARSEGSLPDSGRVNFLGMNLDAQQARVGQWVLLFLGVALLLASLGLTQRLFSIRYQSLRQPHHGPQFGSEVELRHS

Rattus norvegicus [2] = experiment: In vivo percent inhibition of angiotensin I pressor response 15 min after 10mg/kg, iv administration in spontaneously hypertensive rat (SHR); assay type: functional; settings: 0.25 h
Rattus norvegicus [3] = experiment: In vivo percent inhibition of angiotensin I pressor response 15 min after 1 mg/kg, iv administration in spontaneously hypertensive rat (SHR); assay type: functional; settings: for inhibition in vivo at 1 mg/kg: Rattus norvegicus, iv, 0.25 h
Rattus norvegicus [4] = experiment: Maximal change in blood pressure recorded during the 4-day test period in spontaneously hypertensive rat (SHR)at 50 mg/kg, p.o. dose; assay type: functional; settings: route oral
Rattus norvegicus [5] = experiment: In vivo percent inhibition of angiotensin I pressor response 15 min after 0.10 mg/kg, iv administration in spontaneously hypertensive rat (SHR); assay type: functional; settings: 0.25 h
Rattus norvegicus [6] = experiment: In vivo percent inhibition of angiotensin I pressor response 15 min after 2 mg/kg, iv administration in spontaneously hypertensive rat (SHR); assay type: functional; settings: 0.25 h
Rattus norvegicus [7] = experiment: In vivo percent inhibition of angiotensin I pressor response 15 min after 0.3 mg/kg, iv administration in spontaneously hypertensive rat (SHR); assay type: functional; settings: 0.25 h
Rattus norvegicus [8] = experiment: Maximal change in blood pressure recorded during the 4-day test period in spontaneously hypertensive rat (SHR)at 30 mg/kg, po dose; assay type: functional
Rattus norvegicus [9] = experiment: In vivo percent inhibition of angiotensin I pressor response 15 min after 0.4 mg/kg, iv administration in spontaneously hypertensive rat (SHR); assay type: functional; settings: 0.25 h
[10] = molecular target: T1, Angiotensin-converting enzyme; experiment: In vitro inhibition of angiotensin converting enzyme
Rattus norvegicus [11] = experiment: In vivo percent inhibition of angiotensin I pressor response 15 min after 10 mg/kg, iv administration in spontaneously hypertensive rat (SHR); assay type: functional; settings: 0.25 h
Rattus norvegicus [12] = experiment: Maximal change in blood pressure recorded during the 4-day test period in spontaneously hypertensive rat (SHR) at 30 mg/kg, po dose; assay type: functional
Rattus norvegicus [13] = experiment: Maximal change in blood pressure recorded during the 4-day test period in spontaneously hypertensive rat (SHR)at 10mg/kg, po dose; assay type: functional

SMILES: CCOC(=O)C1Cc2ccccc2N1C(=O)CCC(C)C(=O)O (stereo not given)
IC50 [1]: 170000 nM | inhibition in vivo at 10 mg/kg (Rattus norvegicus [2]): 11%

SMILES: CCOC(=O)[C@H](C)C[C@@H](C)C(=O)N1c2ccccc2CC1C(=O)O (stereo not given in full)
IC50 [1]: 5500 nM | Max delta BP (Rattus norvegicus [4]): -75 mmHg | inhibition in vivo at 0.1 mg/kg (Rattus norvegicus [5]): 52%

SMILES: COC(=O)CCC(C)C(=O)N1c2ccccc2CC1C(=O)O (stereo not given)
IC50 [1]: 6900 nM | Max delta BP (Rattus norvegicus [4]): -61 mmHg | inhibition in vivo at 0.1 mg/kg (Rattus norvegicus [5]): 45%

SMILES: CCOC(=O)C1Cc2ccccc2N1C(=O)[C@H](C)C[C@@H](C)C(=O)O (stereo not given in full)
IC50 [1]: 28000 nM | inhibition in vivo at 0.3 mg/kg (Rattus norvegicus [7]): 16%

SMILES: CCOC(=O)[C@H](CCc1ccccc1)C[C@@H](C)C(=O)N1c2ccccc2CC1C(=O)O (stereo not given in full)
Max delta BP (Rattus norvegicus [8]): -70 mmHg | IC50 [1]: 11000 nM | inhibition in vivo at 0.4 mg/kg (Rattus norvegicus [9]): 89%

SMILES: C[C@H](C[C@@H](C)C(=O)N1CCC[C@H]1C(=O)O)C(=O)O
IC50 [1]: 4800 nM

SMILES: Cc1ccc2c(c1)CC(C(=O)O)N2C(=O)[C@H](C)C[C@@H](C)C(=O)O (stereo not given in full)
IC50 [10]: 490 nM | inhibition in vivo at 2 mg/kg (Rattus norvegicus [6]): 40%

SMILES: CC(CC(=O)O)CC(=O)N1c2ccccc2CC1C(=O)O (stereo not given)
IC50 [1]: 37000 nM | inhibition in vivo at 10 mg/kg (Rattus norvegicus [2]): 20%

SMILES: CC(C)(CC(=O)O)CC(=O)N1c2ccccc2CC1C(=O)O (stereo not given)
IC50 [1]: 290000 nM

SMILES: CCOC(=O)CC[C@@H](C)C(=O)N1c2ccccc2CC1C(=O)O (stereo not given in full)
IC50 [1]: 11000 nM | Max delta BP (Rattus norvegicus [4]): -66 mmHg | inhibition in vivo at 0.1 mg/kg (Rattus norvegicus [5]): 27%

SMILES: CC(CCC(N)=O)C(=O)N1c2ccccc2CC1C(=O)O (stereo not given)
IC50 [1]: 16000 nM | inhibition in vivo at 10 mg/kg (Rattus norvegicus [2]): 71%

SMILES: O=C(O)CCCC(=O)N1CCC[C@H]1C(=O)O
IC50 [1]: 70000 nM

SMILES: CCOC(=O)C1Cc2ccccc2N1C(=O)C(C)CC(C)C(=O)O (stereo not given)
IC50 [1]: 8800 nM | Max delta BP (Rattus norvegicus [4]): -33 mmHg | inhibition in vivo at 10 mg/kg (Rattus norvegicus [2]): 84%

SMILES: C[C@H](CS)C(=O)N1CCC[C@H]1C(=O)O [CAPTOPRIL]
Max delta BP (Rattus norvegicus [8]): -55 mmHg | Max delta BP (Rattus norvegicus [13]): -45 mmHg | inhibition in vivo at 1 mg/kg (Rattus norvegicus [3]): 90%

The remaining compounds from weak to strong by IC50 [1], led by results:

IC50 [1]: 4300 nM
SMILES: CCOC(=O)[C@@H](CCC(=O)N1c2ccccc2CC1C(=O)O)CCc1ccccc1 (stereo not given in full)
inhibition in vivo at 1 mg/kg (Rattus norvegicus [3]): 17%

IC50 [1]: 920 nM
SMILES: CC(CCC(=O)N1c2ccccc2CC1C(=O)O)C(=O)O (stereo not given)
inhibition in vivo at 10 mg/kg (Rattus norvegicus [2]): 41%

IC50 [1]: 440 nM
SMILES: C[C@H](C[C@@H](C)C(=O)N1c2ccc(Cl)cc2CC1C(=O)O)C(=O)O (stereo not given in full)
inhibition in vivo at 2 mg/kg (Rattus norvegicus [6]): 32%

IC50 [1]: 300 nM
SMILES: CC(CC(=O)O)C(=O)N1c2ccccc2C[C@H]1C(=O)O (stereo not given in full)
inhibition in vivo at 1 mg/kg (Rattus norvegicus [3]): 27%

IC50 [1]: 260 nM
SMILES: O=C(O)CCCC(=O)N1c2ccccc2CC1C(=O)O (stereo not given)
inhibition in vivo at 10 mg/kg (Rattus norvegicus [11]): 78% | Max delta BP (Rattus norvegicus [12]): -37 mmHg

IC50 [1]: 190 nM
SMILES: CC(CC(C)C(=O)N1c2ccccc2CC1C(=O)O)C(=O)O (stereo in doubt; 6m)
inhibition in vivo at 1 mg/kg (Rattus norvegicus [3]): 76%

IC50 [1]: 110 nM
SMILES: COc1ccc2c(c1)CC(C(=O)O)N2C(=O)[C@H](C)C[C@@H](C)C(=O)O (stereo not given in full)
inhibition in vivo at 1 mg/kg (Rattus norvegicus [3]): 56%

IC50 [1]: 64 nM
SMILES: CC(CCC(=O)O)C(=O)N1c2ccccc2CC1C(=O)O (stereo not given)
inhibition in vivo at 1 mg/kg (Rattus norvegicus [3]): 84% | Max delta BP (Rattus norvegicus [4]): -61 mmHg

IC50 [1]: 54 nM
SMILES: CC(CC(C)C(=O)N1c2ccccc2CC1C(=O)O)C(=O)O (stereo in doubt; 6n)
Inhibition (Rattus norvegicus [3]; 1 mg/kg): 84%

IC50 [1]: 50 nM
SMILES: CC(C)C(CCC(=O)O)C(=O)N1c2ccccc2CC1C(=O)O (stereo not given)
inhibition in vivo at 1 mg/kg (Rattus norvegicus [3]): 77%

IC50 [1]: 44 nM
SMILES: C[C@H](CCC(=O)O)C(=O)N1c2ccccc2CC1C(=O)O (stereo not given in full)
Max delta BP (Rattus norvegicus [8]): -35 mmHg | inhibition in vivo at 1 mg/kg (Rattus norvegicus [3]): 94%

IC50 [1]: 39 nM
SMILES: O=C(O)C(CCC(=O)N1c2ccccc2CC1C(=O)O)CCc1ccccc1 (stereo not given)
Max delta BP (Rattus norvegicus [4]): -46 mmHg | inhibition in vivo at 10 mg/kg (Rattus norvegicus [2]): 75%

IC50 [1]: 33 nM
SMILES: O=C(O)C1Cc2ccccc2N1C(=O)CC[C@@H](CCc1ccccc1)C(=O)O (stereo not given in full)

IC50 [1]: 28 nM
SMILES: C[C@H](C[C@@H](C)C(=O)N1c2ccccc2CC1C(=O)O)C(=O)O (stereo not given in full)
Max delta BP (Rattus norvegicus [4]): -39 mmHg | inhibition in vivo at 0.1 mg/kg (Rattus norvegicus [5]): 45%

IC50 [1]: 4.8 nM
SMILES: C[C@H](C[C@@H](CCc1ccccc1)C(=O)O)C(=O)N1c2ccccc2CC1C(=O)O (stereo not given in full)
inhibition in vivo at 0.1 mg/kg (Rattus norvegicus [5]): 60%
